Results on 1 compound are retold here after BindingDB's records for doi:10.1016/s0960-894x(00)00485-6 (Axys Pharmaceuticals, 2001).

The nature of this assay: Dissociation constant of compound was evaluated from its IC50 against tryptase at different concentrations.

A word on the Kd: it is a measure of binding affinity in units of concentration. As to `NC(N)=Nc1ccc(CNC(=O)N2CCN(C(=O)O[C@@H]3CO[C@H]4[C@@H]3OC[C@H]4OC(=O)N3CCN(C(=O)NCc4ccc(N=C(N)N)cc4)CC3)CC2)cc1` [Derivative of APC-2059], binding was put at a Kd of 0.1 nM.
